Patent US11241393B2 (priority 2020, dated 2022)
Where two headings read alike, the source gives them in different places.

Tests used:
[1] = system: influenza virus A/Aichi/2/68 (H3N2); experiment: organism not typed; assay type: cell-based; details: for IC50: MDCK
in vitro [2] = details: dog
human cytomegalovirus = assay type: cell-based
in vitro [3] = details: human
in vitro [4] = details: cattle
in vitro [5] = experiment: in vitro
in vitro [6] = details: human; remark: listed apart in the source
vaccinia virus = assay type: cell-based; details: in vitro, cell culture
[7] = rat, in vivo

## CC(N)C12CC3CC(CC(C3)C1)C2 (centres unmarked) [Rimantadine, reference compound]
[1]
  SI: 3133.0
  IC50: 0.03 µM
In vitro [2]
  CC50: 94 µM

## CCCCCCCCCC[Si](C)(C)CCOC1OC(CO)C(O)C(O)C1O [Sil 2, 2-(Dimethyldecylsilyl)ethyl-b-D-glucopyranoside]
Human cytomegalovirus
  antiviral activity against human cytomegalovirus: Close to borderline effect
CT cells
  cytotoxicity (summary in words): wider toxicity
[1]
  SI: 2.43
  antiviral activity toward influenza virus A(H3N2): marked activity
  IC50: 7.38 µM
In vitro [3]
  CC50: < 20 µM
HEp-2 cells
  cytotoxicity (summary in words): wider toxicity
In vitro [4]
  CC50: < 20 µM
MDCK cells
  cytotoxicity (summary in words): wider toxicity
MDCK cells; dog
  CC50: 18 µM
In vitro [2]
  CC50: < 20 µM
In vitro [5]
  CC50: < 20 µM

## CCCCCCCCCCCC[Si](C)(C)CCOC1OC(CO)C(O)C(O)C1O [Sil 3, 2-(Dimethyldodecylsilyl)ethyl-b-D-glucopyranoside]
[1]
  SI: 2.9
  antiviral activity toward influenza virus A(H3N2): marked activity
  IC50: 6.6 µM
In vitro [4]
  CC50: < 20 µM
MDCK cells; dog
  CC50: 19.2 µM
In vitro [2]
  CC50: < 20 µM
In vitro [5]
  CC50: < 20 µM

## CCCC[Si](C)(C)OC1OC(CO)C(O)C(O)C1O [Sil 7, Butyldimethylsilyl-a-D-galactopyranoside]
Human cytomegalovirus
  antiviral activity against human cytomegalovirus: Close to borderline effect
In vitro [6]
  CC50: < 20 µM
In vitro [2]
  CC50: 444 µM

## CCCCCCCCCCCC[Si](C)(C)OC1OC(CO)C(O)C(O)C1O [Sil 9, Dodecyldimethylsilyl-a-D-glucopyranoside]
Vaccinia virus
  antiviral activity versus vaccinia virus: marked activity
In vitro [2]
  CC50: 444 µM

## CCCCCCCCCCCCCCCCCC[Si](CCCCCCCCCCCCCCCCCC)(OC1OC(COC(C)=O)C(OC(C)=O)C(OC(C)=O)C1OC(C)=O)OC1OC(COC(C)=O)C(OC(C)=O)C(OC(C)=O)C1OC(C)=O [Sil 15, 1-O-Dioctadecylsilyl-di(2,3,4,6-O-tetraacetyl-b-D-galactopyranoside)]
Human cytomegalovirus; in vitro, cell culture
  antiviral activity against human cytomegalovirus: Close to borderline effect

## CCCCCCCCCCCC[Si](C)(C)O[C@@H]1O[C@H](COC(C)=O)[C@@H](OC(C)=O)[C@H](OC(C)=O)[C@H]1OC(C)=O [Sil 19, 1-O-Dimethyl(dodecyl)silyl-(2,3,4,6-O-tetraacetyl-b-D-glucopyranoside)]
Human cytomegalovirus
  antiviral activity against human cytomegalovirus: Close to borderline effect
MDCK cells
  CC50: 65.5 µM

## CCCCCCCCCCCCCCCCCC[Si](C)(C)O[C@@H]1O[C@H](COC(C)=O)[C@@H](OC(C)=O)[C@H](OC(C)=O)[C@H]1OC(C)=O [Sil 20, 1-O-Dimethyl(octadecyl)silyl-(2,3,4,6-O-tetraacetyl-b-D-glucopyranoside)]
Human cytomegalovirus
  antiviral activity toward the cytomegalovirus: marked activity
MDCK cells
  CC50: 2530 µM

## CCCCCCCCCCCC(=O)O[Si](OC(=O)CCCCCCCCCCC)(c1ccccc1)c1ccccc1 [Sil 25, Di(dodecanoyloxy)diphenylsilane]
[1]
  SI: 5.82
  antiviral activity toward influenza virus A(H3N2): marked activity
  IC50: 9.6 µM
In vitro [2]
  CC50: 55.9 µM
In vitro [5]
  CC50: < 20 µM

## CCCCCCCCCCCCCCCC(=O)O[Si](OC(=O)CCCCCCCCCCCCCCC)(c1ccccc1)c1ccccc1 [Sil 27, Di(hexadecanoyloxy)diphenylsilane]
Human cytomegalovirus
  SI: 30.9
  antiviral activity against human cytomegalovirus: marked activity
In vitro [2]
  CC50: 317 µM

## CCCCCCCCCCC(=O)O[Si](C)(C)OC(=O)CCCCCCCCCC [Sil 34, Di(undecanoyloxy)dimethylsilane]
Human cytomegalovirus
  antiviral activity against human cytomegalovirus: Close to borderline effect
In vitro [2]
  CC50: 2530 µM

## N.N.[Cl-].[Cl-].[OH-].[OH-].[Pt+4] [Standard Cis-Oxoplatin, cis-oxoplatin]
[7]; iv
  tissues with highest platinum concentration compared with the other treatment groups: highest platinum concentration in the stomach and the liver
[7]; po
  tissues with highest platinum concentration compared with the other treatment groups: highest accumulation of platinum in the spleen and lungs
